Measurements taken from paper PMC12750270, “Design and Preclinical Evaluation of a ^68Ga-Labeled Macrocyclic Peptide PET Probe Targeting Transferrin Receptor 1 in Colorectal Cancer” (ACS Omega, 2025).

Experiments:
[1] = molecular target: T1, human TfR1 (Homo sapiens, UniProt P02786); assay: Surface plasmon resonance (SPR) binding affinity assay, Biacore 8K; conditions: recombinant human TfR1-Fc immobilized, read-out: association rate constant (Ka)
T1 construct: Fc; purchased Acro Biosystems TFR-H5264
T1 sequence (P02786 whole entry): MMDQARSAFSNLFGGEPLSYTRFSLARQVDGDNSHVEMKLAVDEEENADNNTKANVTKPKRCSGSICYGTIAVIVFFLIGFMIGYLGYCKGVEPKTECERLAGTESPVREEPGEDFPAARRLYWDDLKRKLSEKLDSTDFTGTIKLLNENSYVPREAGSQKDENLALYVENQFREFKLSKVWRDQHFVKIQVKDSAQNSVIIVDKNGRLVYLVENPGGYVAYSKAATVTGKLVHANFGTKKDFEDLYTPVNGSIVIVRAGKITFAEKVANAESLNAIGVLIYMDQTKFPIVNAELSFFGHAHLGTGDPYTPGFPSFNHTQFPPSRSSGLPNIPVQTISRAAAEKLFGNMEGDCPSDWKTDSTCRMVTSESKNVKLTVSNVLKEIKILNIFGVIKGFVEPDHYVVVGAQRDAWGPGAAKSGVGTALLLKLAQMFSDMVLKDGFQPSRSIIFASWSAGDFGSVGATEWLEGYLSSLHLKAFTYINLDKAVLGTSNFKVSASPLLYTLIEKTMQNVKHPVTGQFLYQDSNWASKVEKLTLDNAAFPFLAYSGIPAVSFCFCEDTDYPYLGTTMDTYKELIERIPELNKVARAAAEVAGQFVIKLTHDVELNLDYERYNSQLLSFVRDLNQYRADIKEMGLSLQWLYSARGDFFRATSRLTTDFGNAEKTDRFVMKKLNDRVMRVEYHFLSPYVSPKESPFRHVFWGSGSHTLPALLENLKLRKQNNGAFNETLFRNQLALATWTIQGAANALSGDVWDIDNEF
Description: 1 (A) Synthetic scheme for^68 Ga-NOTA-TR01; (B) ESI-MS analysis of TR01; (C) Binding response (nm) between human TfR1 and varying concentrations (62.5–1,000 nM) of TR01; (D, E) Stability assessment of ^68 Ga-NOTA-TR01 in PBS and serum at 37 °C, measured by radio-HPLC.
SPR was employed to quantify the binding interaction between TR01 and TfR1.
The binding affinity of NOTA-TR01 to human TfR1 was evaluated by surface plasmon resonance (SPR) using a Biacore 8K system (Cytiva, USA) at Nanjing Genscript Probio. Recombinant human TfR1-Fc protein (TFR-H5264, Acro Biosystems) was immobilized on the sensor chip for kinetic analysis. The assay was performed under acidic conditions (pH 2.0) using a running buffer containing […]. Real-time binding data were collected at a 1:1 ligand-to-analyte ratio. The equilibrium dissociation constant (KD) was calculated by globally fitting the association and dissociation curves.

[2] = physchem; assay type: physicochemical
Description: The molar activity was determined to be greater than 20 GBq/μmol. The log P was calculated as −1.709 ± 0.121 (n = 6), indicating a hydrophilic profile.
The lipophilicity of ^68Ga-NOTA-TR01 was determined via a standard octanol–water partition method. A solution of ^68Ga-NOTA-TR01 [5 μL, 0.74 MBq in phosphate-buffered saline (PBS)] was mixed with 0.5 mL n-octanol and 0.495 mL PBS. The biphasic system was vortexed for 3 min and centrifuged at 4,000 rpm for 5 min to achieve phase separation. Aliquots (100 μL) from each layer were sampled, and radioactivity was measured using a γ-counter. The log P was calculated using the formula: log P = log (cpm_octanol/cpm_PBS).

[3] = tested on: HT29 cells (TfR1 high); assay: Cellular binding/blocking assay in HT29 cells; assay type: cell-based, human; conditions: for cellular binding: HT29, 37 °C, 37 kBq, γ-counter, triplicate
Description: (§1) The percentage of added dose per 5 × 10^5 cells (%AD/5 × 10^5 cells) was as follows: at 30 min: 5.44 ± 0.12% (HT29) vs 2.63 ± 0.09% (LOVO), at 60 min: 6.36 ± 0.05% (HT29) vs 3.19 ± 0.23% (LOVO), at 120 min: 9.56 ± 0.17% (HT29) vs 4.51 ± 0.22% (LOVO).
(§2) The cell-specific binding of ^68Ga-NOTA-TR01 was evaluated in HT29 and LOVO cells. Cells were seeded in 12-well plates (5 × 10^5 cells/well) and cultured for 24 h under standard conditions (37 °C, 5% CO2). After washing with cold PBS, cells were incubated with 1 mL serum-free medium containing ^68Ga-NOTA-TR01 (37 kBq, ∼[…] corresponding to approximately 0.4 pmol of peptide). For blocking studies, parallel wells were pretreated with a 1,000-fold molar excess (3.3 nmol, 1 μg) of unlabeled TR01 peptide. Cellular binding was assessed at 0.5, 1, 2, and 4 h postincubation. Following incubation, cells were washed twice with ice-cold PBS, lysed in 1 M NaOH, and the associated radioactivity was measured using a γ-counter. Radioactivity data were corrected for decay using the ^68Ga decay constant (λ = 0.00876 min^– 1). Each condition was measured in triplicate for statistical accuracy.

[4] = in vivo; set-up: species or system BALB/c nude mice; conditions: BALB/c nude, mouse, iv, total radioactivity
Description: Three mice were included at each time point; %ID/g is the percentage of injected dose per gram of tissue.
Xenograft tumor models were established by subcutaneously injecting 1 × 10^7 LOVO or HT29 cells (in 100 μL PBS) into the right flank of 5–6-week-old BALB/c nude mice (purchased from Hangzhou Ziyuan Experimental Animal Technology). Tumor growth was monitored by caliper measurement, and imaging experiments were initiated once tumors reached a volume of 100–300 mm^3. All animal procedures were conducted in accordance with the institutional guidelines of the Animal Care and Use Committee at Soochow University.
A comparative biodistribution study was conducted in BALB/c nude mice (n = 3 per group), each intravenously injected with ^68Ga-NOTA-TR01 (1.85 ± 0.49 MBq, corresponding to ∼0.15 nmol peptide, in 100 μL saline). At 30-, 60-, and 120 min postinjection, mice were euthanized for terminal blood collection and organ harvesting. For blocking studies, an additional cohort was sacrificed at 60 min following coinjection with cold NOTA-TR01 (300 μg, ∼0.1 μmol per mouse). Excised tissues were perfused three times with PBS to remove residual blood, weighed, and their radioactivity quantified using a γ-counter. The biodistribution of the radiotracer was expressed as %ID/g. Tumor-to-background ratios (TBRs) were calculated to assess tracer specificity.

[5] = assay type: physicochemical; conditions: 37 °C, 24 h, ∼3.7 MBq in 200 μL, radio-HPLC
Description: Collectively, these findings confirmed the suitability of ^68Ga-NOTA-TR01 for further preclinical applications.
[…] At each time point, radiochemical integrity was assessed via radio-HPLC by comparing the retention time of the incubated samples with that of a nonincubated control.

[6] = tested on: LOVO cells (TfR1 low); assay: Cellular binding assay in LOVO cells; assay type: cell-based, human; conditions: 37 °C, 37 kBq, γ-counter, triplicate
Description: as §1, §2

SMILES | kon [1] | logD [2] | cellular binding ([3]; 30 min) | cellular binding ([3]; 60 min) | cellular binding ([3]; 120 min) | cellular binding, blocking group ([3]; HT29, preincubation with 1,000-fold molar excess of unlabeled TR01, 30 min) | cellular binding, blocking group ([3]; HT29, preincubation with 1,000-fold molar excess of unlabeled TR01, 60 min) | cellular binding, blocking group ([3]; HT29, preincubation with 1,000-fold molar excess of unlabeled TR01, 120 min) | inhibition of cell binding by cold peptide ([3]; HT29 cells, cold peptide) | tissue to tissue ratio at 2 h [4] | radiochemical integrity after incubation in PBS [5] | cellular binding ([6]; 30 min) | cellular binding ([6]; 60 min) | cellular binding ([6]; 120 min)
CC[C@H](C)[C@@H]1NC(=O)[C@H](Cc2ccc(O)cc2)NC(=O)[C@H](Cc2ccc(O)cc2)NC(=O)[C@H](CC(N)=O)NC(=O)[C@H](Cc2c[nH]c3ccccc23)NC(=O)[C@H](C(C)C)NC(=O)[C@H](Cc2ccccc2)NC(=O)[C@H](C(C)C)NC(=O)[C@H](C)NC(=O)CSC[C@@H](C(=O)NCCOCCOCCOCCOCCOCCOCCOCCOCCOCCOCCOCCOCCC(=O)N[C@@H](CCCCNC(=O)CN2CCN(CC(=O)O)CCN(CC(=O)O)CC2)C(=O)O)NC(=O)[C@H](Cc2ccc(O)cc2)N(C)C(=O)[C@H](Cc2ccc(O)cc2)NC(=O)[C@H](CCCNC(=N)N)NC(=O)[C@H](CCCNC(=N)N)NC(=O)[C@H]([C@@H](C)CC)NC1=O [NOTA-TR01, cyclo(Ac-Ala-Val-Phe-Val-Trp-Asn-Tyr-Tyr-Ile-Ile-Arg-Arg-Tyr-NMe-Tyr-Cys)-PEG12-Lys-NOTA] | 77300 M⁻¹ s⁻¹ | – | – | – | – | – | – | – | – | – | – | – | – | –
CC[C@H](C)[C@@H]1NC(=O)[C@H](Cc2ccc(O)cc2)NC(=O)[C@H](Cc2ccc(O)cc2)NC(=O)[C@H](CC(N)=O)NC(=O)[C@H](Cc2c[nH]c3ccccc23)NC(=O)[C@H](C(C)C)NC(=O)[C@H](Cc2ccccc2)NC(=O)[C@H](C(C)C)NC(=O)[C@H](C)NC(=O)CSC[C@@H](C(=O)NCCOCCOCCOCCOCCOCCOCCOCCOCCOCCOCCOCCOCCC(=O)N[C@@H](CCCCNC(=O)CN2CCN(CC(=O)O)CCN(CC(=O)O)CC2)C(=O)O)NC(=O)[C@H](Cc2ccc(O)cc2)N(C)C(=O)[C@H](Cc2ccc(O)cc2)NC(=O)[C@H](CCCNC(=N)N)NC(=O)[C@H](CCCNC(=N)N)NC(=O)[C@H]([C@@H](C)CC)NC1=O [^68Ga-NOTA-TR01, metal not drawn] | – | -1.71 ± 0.121 | 5.44 ± 0.12 %AD/5 × 10^5 cells | 6.36 ± 0.05 %AD/5 × 10^5 cells | 9.56 ± 0.17 %AD/5 × 10^5 cells | 1.58 ± 0.06% | 1.34 ± 0.29% | 1.27 ± 0.09% | over 85% | > 7 | > 98% | 2.63 ± 0.09 %AD/5 × 10^5 cells | 3.19 ± 0.23 %AD/5 × 10^5 cells | 4.51 ± 0.22 %AD/5 × 10^5 cells
